Results as given in ChEMBL document CHEMBL2150910, “Initial Optimization of a New Series of γ-Secretase Modulators Derived from a Triterpene Glycoside” (ACS Med Chem Lett, 2012).

How the values were obtained:
[1] = Inhibition of gamma-secretase-mediated amyloid beta-42 production in diluted 2B7 conditioned media after 5 hrs
[2] = Inhibition of gamma-secretase-mediated amyloid beta-40 production in diluted 2B7 conditioned media at 4 uM after 5 hrs
[3] = Inhibition of gamma-secretase-mediated amyloid beta-40 production in diluted 2B7 conditioned media at 20 uM after 5 hrs
[4] = Inhibition of gamma-secretase-mediated amyloid beta-40 production in diluted 2B7 conditioned media after 5 hrs

| SMILES | IC50 [1] [µM] | inhibition [2] [%] | inhibition [3] [%] | IC50 [4] [µM] |
| --- | --- | --- | --- | --- |
| CC(=O)OC(C)(C)[C@H]1O[C@@]23O[C@@H]1C[C@@H](C)C2[C@@]1(C)CC[C@@]24C[C@@]25CC[C@H](O[C@@H]2OC[C@@H](O)[C@H](O)[C@H]2O)C(C)(C)[C@@H]5CC[C@H]4[C@]1(C)[C@H]3O (some centres undefined) | 3 | – | – | – |
| CC(=O)O[C@@H]([C@H]1C[C@@H](C)[C@H]2[C@H](O1)[C@H](O)[C@@]1(C)[C@@H]3CC[C@H]4C(C)(C)[C@@H](O[C@H]5CN(Cc6ncc[nH]6)CCO5)CC[C@@]45C[C@@]35CC[C@]21C)C(C)(C)O | 0.12 | 38 | – | – |
| CC(=O)O[C@@H]([C@H]1C[C@@H](C)[C@H]2[C@H](O1)[C@H](O)[C@@]1(C)[C@@H]3CC[C@H]4C(C)(C)[C@@H](O[C@H]5CN(C(=O)CC6CC6)CCO5)CC[C@@]45C[C@@]35CC[C@]21C)C(C)(C)O | 0.13 | – | 38 | – |
| CC(=O)O[C@@H]([C@H]1C[C@@H](C)[C@H]2[C@H](O1)[C@H](O)[C@@]1(C)[C@@H]3CC[C@H]4C(C)(C)[C@@H](O[C@@H](CO)OCCO)CC[C@@]45C[C@@]35CC[C@]21C)C(C)(C)O | 0.1 | – | – | – |
| CCCN1CCO[C@@H](O[C@H]2CC[C@]34C[C@]35CC[C@]3(C)[C@@H]6[C@H](O[C@@H]([C@H](OC(C)=O)C(C)(C)O)C[C@H]6C)[C@H](O)[C@@]3(C)[C@@H]5CC[C@H]4C2(C)C)C1 | 0.68 | – | – | 15.9 |
| CC(=O)O[C@@H]([C@H]1C[C@@H](C)[C@H]2[C@H](O1)[C@H](O)[C@@]1(C)[C@@H]3CC[C@H]4C(C)(C)[C@@H](O[C@H]5CN(C6CCOCC6)CCO5)CC[C@@]45C[C@@]35CC[C@]21C)C(C)(C)O | 0.18 | 38 | – | – |
| CC(=O)O[C@@H]([C@H]1C[C@@H](C)[C@H]2[C@H](O1)[C@H](O)[C@@]1(C)[C@@H]3CC[C@H]4C(C)(C)[C@@H](O[C@H]5CN(Cc6ccccc6)CCO5)CC[C@@]45C[C@@]35CC[C@]21C)C(C)(C)O | 2 | 4 | – | – |
| CC(=O)O[C@@H]([C@H]1C[C@@H](C)[C@H]2[C@H](O1)[C@H](O)[C@@]1(C)[C@@H]3CC[C@H]4C(C)(C)[C@@H](O[C@H]5CN(C(=O)C6(C)COC6)CCO5)CC[C@@]45C[C@@]35CC[C@]21C)C(C)(C)O | 0.08 | – | – | 8 |
| CC(=O)O[C@@H]([C@H]1C[C@@H](C)[C@H]2[C@H](O1)[C@H](O)[C@@]1(C)[C@@H]3CC[C@H]4C(C)(C)[C@@H](O[C@@H](CN(C)C)OCCN(C)C)CC[C@@]45C[C@@]35CC[C@]21C)C(C)(C)O | 2.4 | – | – | – |
| CC(=O)O[C@@H]([C@H]1C[C@@H](C)[C@H]2[C@H](O1)[C@H](O)[C@@]1(C)[C@@H]3CC[C@H]4C(C)(C)[C@@H](O[C@H]5CN(C(=O)c6ccno6)CCO5)CC[C@@]45C[C@@]35CC[C@]21C)C(C)(C)O | 0.07 | – | – | 4.8 |
| CC(=O)O[C@@H]([C@H]1C[C@@H](C)[C@H]2[C@H](O1)[C@H](O)[C@@]1(C)[C@@H]3CC[C@H]4C(C)(C)[C@@H](O[C@H]5CN(C(=O)c6cn(C)cn6)CCO5)CC[C@@]45C[C@@]35CC[C@]21C)C(C)(C)O | 0.13 | – | 44 | – |
| CC(=O)O[C@@H]([C@H]1C[C@@H](C)[C@H]2[C@H](O1)[C@H](O)[C@@]1(C)[C@@H]3CC[C@H]4C(C)(C)[C@@H](O[C@H]5CN(S(C)(=O)=O)CCO5)CC[C@@]45C[C@@]35CC[C@]21C)C(C)(C)O | 0.08 | – | 40 | – |
| CC(=O)O[C@@H]([C@H]1C[C@@H](C)[C@H]2[C@H](O1)[C@H](O)[C@@]1(C)[C@@H]3CC[C@H]4C(C)(C)[C@@H](O[C@H]5CN(CCO)CCO5)CC[C@@]45C[C@@]35CC[C@]21C)C(C)(C)O | 0.24 | 46 | – | – |
| CC(=O)O[C@@H]([C@H]1C[C@@H](C)[C@H]2[C@H](O1)[C@H](O)[C@@]1(C)[C@@H]3CC[C@H]4C(C)(C)[C@@H](O[C@H]5CN(CC(C)(C)O)CCO5)CC[C@@]45C[C@@]35CC[C@]21C)C(C)(C)O | 0.23 | – | – | 9.4 |
| CC(=O)O[C@@H]([C@H]1C[C@@H](C)[C@H]2[C@H](O1)[C@H](O)[C@@]1(C)[C@@H]3CC[C@H]4C(C)(C)[C@@H](O[C@H]5CN(CC(=O)N(C)C)CCO5)CC[C@@]45C[C@@]35CC[C@]21C)C(C)(C)O | 0.14 | – | – | 9 |
| CC(=O)O[C@@H]([C@H]1C[C@@H](C)[C@H]2[C@H](O1)[C@H](O)[C@@]1(C)[C@@H]3CC[C@H]4C(C)(C)[C@@H](O[C@H]5CN(CC(=O)O)CCO5)CC[C@@]45C[C@@]35CC[C@]21C)C(C)(C)O | 0.37 | – | – | 14 |
| CC(=O)O[C@@H]([C@H]1C[C@@H](C)[C@H]2[C@H](O1)[C@H](O)[C@@]1(C)[C@@H]3CC[C@H]4C(C)(C)[C@@H](O[C@H]5CN(C6CC6)CCO5)CC[C@@]45C[C@@]35CC[C@]21C)C(C)(C)O | 1 | – | 35 | – |

| SMILES | IC50 [1] [µM] | inhibition [2] [%] | inhibition [3] [%] | IC50 [4] [µM] |
| --- | --- | --- | --- | --- |
| CC(=O)O[C@@H]([C@H]1C[C@@H](C)[C@H]2[C@H](O1)[C@H](O)[C@@]1(C)[C@@H]3CC[C@H]4C(C)(C)[C@@H](O[C@H]5CN(CC(F)(F)F)CCO5)CC[C@@]45C[C@@]35CC[C@]21C)C(C)(C)O | 1.19 | – | 47 | – |
| CCN1CCO[C@@H](O[C@H]2CC[C@]34C[C@]35CC[C@]3(C)[C@@H]6[C@H](O[C@@H]([C@H](OC(C)=O)C(C)(C)O)C[C@H]6C)[C@H](O)[C@@]3(C)[C@@H]5CC[C@H]4C2(C)C)C1 | 0.19 | 42 | – | – |
| CC(=O)O[C@@H]([C@H]1C[C@@H](C)[C@H]2[C@H](O1)[C@H](O)[C@@]1(C)[C@@H]3CC[C@H]4C(C)(C)[C@@H](O[C@H]5CN(CCC(=O)O)CCO5)CC[C@@]45C[C@@]35CC[C@]21C)C(C)(C)O | 0.49 | – | – | 18.8 |
| CC(=O)O[C@@H]([C@H]1C[C@@H](C)[C@H]2[C@H](O1)C(=O)[C@@]1(C)[C@@H]3CC[C@H]4C(C)(C)[C@@H](O[C@@H]5OC[C@@H](O)[C@H](O)[C@H]5O)CC[C@@]45C[C@@]35CC[C@]21C)C(C)(C)O | 0.6 | – | – | – |
| C[C@@H]1C[C@H]([C@H](O)C(C)(C)O)O[C@H]2[C@H]1[C@@]1(C)CC[C@@]34C[C@@]35CC[C@H](O[C@@H]3OC[C@@H](O)[C@H](O)[C@H]3O)C(C)(C)[C@@H]5CC[C@H]4[C@]1(C)[C@H]2O | 3.1 | – | – | – |
| CC(=O)O[C@@H]([C@H]1C[C@@H](C)[C@H]2[C@H](O1)[C@H](O)[C@@]1(C)[C@@H]3CC[C@H]4C(C)(C)[C@@H](O[C@H]5CN(CCN6CCOCC6)CCO5)CC[C@@]45C[C@@]35CC[C@]21C)C(C)(C)O | 0.16 | 49 | – | – |
| COCCN1CCO[C@@H](O[C@H]2CC[C@]34C[C@]35CC[C@]3(C)[C@@H]6[C@H](O[C@@H]([C@H](OC(C)=O)C(C)(C)O)C[C@H]6C)[C@H](O)[C@@]3(C)[C@@H]5CC[C@H]4C2(C)C)C1 | 0.21 | – | – | 7.6 |
| CC(=O)O[C@@H]([C@H]1C[C@@H](C)[C@H]2[C@H](O1)[C@H](O)[C@@]1(C)[C@@H]3CC[C@H]4C(C)(C)[C@@H](O[C@H]5CN(CC(N)=O)CCO5)CC[C@@]45C[C@@]35CC[C@]21C)C(C)(C)O | 0.15 | – | – | 7.8 |
| C[C@@H]1C[C@H]([C@H](O)C(C)(C)O)O[C@H]2[C@H]1[C@@]1(C)CC[C@@]34C[C@@]35CC[C@H](O)C(C)(C)[C@@H]5CC[C@H]4[C@]1(C)[C@H]2O | > 10 | – | – | – |
| CC(=O)O[C@@H]([C@H]1C[C@@H](C)[C@H]2[C@H](O1)[C@H](O)[C@@]1(C)[C@@H]3CC[C@H]4C(C)(C)[C@@H](O[C@H]5CN(C)CCO5)CC[C@@]45C[C@@]35CC[C@]21C)C(C)(C)O | 0.13 | – | – | 3.4 |
| CC(=O)O[C@@H]([C@H]1C[C@@H](C)[C@H]2[C@H](O1)[C@H](O)[C@@]1(C)[C@@H]3CC[C@H]4C(C)(C)[C@@H](O[C@H]5CN(C(C)=O)CCO5)CC[C@@]45C[C@@]35CC[C@]21C)C(C)(C)O | 0.09 | – | – | 13.4 |
| CC(=O)O[C@@H]([C@H]1C[C@@H](C)[C@H]2[C@H](O1)[C@H](O)[C@@]1(C)[C@@H]3CC[C@H]4C(C)(C)[C@@H](O[C@H]5CN(C6CCC6)CCO5)CC[C@@]45C[C@@]35CC[C@]21C)C(C)(C)O | 0.35 | 44 | – | – |
| CC(=O)O[C@@H]([C@H]1C[C@@H](C)[C@H]2[C@H](O1)[C@H](O)[C@@]1(C)[C@@H]3CC[C@H]4C(C)(C)[C@@H](O[C@H]5CN([C@H]6CCNC6=O)CCO5)CC[C@@]45C[C@@]35CC[C@]21C)C(C)(C)O | 0.2 | – | – | 7 |
| CC(=O)O[C@@H]([C@H]1C[C@@H](C)[C@H]2[C@H](O1)[C@H](O)[C@@]1(C)[C@@H]3CC[C@H]4C(C)(C)[C@@H](O[C@H]5CN(C(=O)N(C)C)CCO5)CC[C@@]45C[C@@]35CC[C@]21C)C(C)(C)O | 0.06 | – | 40 | – |
| CC(=O)O[C@@H]([C@H]1C[C@@H](C)[C@H]2[C@H](O1)[C@H](O)[C@@]1(C)[C@@H]3CC[C@H]4C(C)(C)[C@@H](O)CC[C@@]45C[C@@]35CC[C@]21C)C(C)(C)O | 0.6 | – | – | – |
| CC(=O)O[C@@H]([C@H]1C[C@@H](C)[C@H]2[C@H](O1)[C@H](O)[C@@]1(C)[C@@H]3CC[C@H]4C(C)(C)[C@@H](O[C@H]5CN([C@@H]6CCNC6=O)CCO5)CC[C@@]45C[C@@]35CC[C@]21C)C(C)(C)O | 0.12 | – | 44 | – |
